This series is described as follows: Measurement of solubility in methyl benzoate (Evaluation Example 1). It is filed as physicochemical. To be noted: for solubility in an organic solvent, as compared with host-c: qualitative statement referring to Table 1; for Solubility: solvent methyl benzoate, room temperature, ultrasonic irradiation, visual check. The method, then: 50 milligrams (mg) of Compound 1-1 and 450 mg of methyl benzoate (solvent) were added to a colorless sample bottle, the mixture was irradiated with ultrasonic waves at room temperature for 5 minutes, and the presence or absence of Compound 1-1 was visually confirmed. […] If Compound 1-1 remained, a small amount of the solvent was added, the irradiation with ultrasonic waves was repeated, and an amount of the solvent was measured until Compound 1-1 was completely dissolved. The solubility was calculated from an amount of the solvent finally used. The solubility values of Compound 1-2 and host-c were calculated in the same manner.

`c1ccc(-c2cccc(-c3cccc(-c4ccc5c(c4)c4ccccc4n5-c4ccc(-c5cccc(-c6cc(-c7cccc(-c8cccc(-c9cccc(-c%10nc(-c%11ccccc%11)nc(-c%11ccccc%11)n%10)c9)c8)c7)c7oc8ccccc8c7c6)c5)cc4)c3)c2)cc1` [Compound 1-2]: the “solubility in an organic solvent, as compared with host-c” value is listed as “high solubility” and the Solubility is reported as 4 weight %.
The compound `c1ccc(-c2nc(-c3ccccc3)nc(-c3cc(-n4c5ccccc5c5ccccc54)cc4c3oc3ccccc34)n2)cc1` [host-c, reference compound] yielded a Solubility of 0.1 weight %.
For the compound `c1ccc(-c2cccc(-c3cccc(-c4ccc5c(c4)c4ccccc4n5-c4ccc(-c5cccc(-c6cc(-c7ccc(-c8cccc(-c9nc(-c%10ccccc%10)nc(-c%10ccccc%10)n9)c8)cc7)c7oc8ccccc8c7c6)c5)cc4)c3)c2)cc1` [Compound 1-1], the “solubility in an organic solvent, as compared with host-c” value is on record as “high solubility” and the Solubility came to 4 weight %.
